Laboratory results reported in US8389573B2, “Glycyrrhetinic acid derivatives” (Wellington Laboratories Inc., priority 2006, dated 2013).
“Also recorded” adds a separate entry of the source.

Columns and labels:
HT-29 colon cancer cells = test: Cell proliferation assay in HT-29 cells; type: cell-based; details: Homo sapiens, read-out: IC50, growth inhibition / cell proliferation
Method: Human colon carcinoma cell lines SW480 and HT29 were provided by Dr. Stan Hamilton, M.D. Anderson Cancer Center (Houston, Tex.); SW-480 and HT-29 cells were maintained in Dulbecco's modified Eagle's medium nutrient mixture with Ham's F-12 (DMEM/Ham's F-12; Sigma-Aldrich, St. Louis, Mo.) with phenol red supplemented with 0.22% sodium bicarbonate, 0.011% sodium pyruvate, and 5% fetal bovine serum and 10 ml/l 100× antibiotic antimycotic solution (Sigma-Aldrich). Cells were maintained at 37° C. in the presence of 5% CO2.
SW480 and HT 29 Cells (2×10^4) were plated in 12-well plates, and media were replaced the next day with DMEM/Ham's F-12 media containing 2.5% charcoal-stripped FBS and either vehicle (DMSO) or the indicated ligand and dissolved in DMSO. Fresh media and compounds were added every 48 h. Cells were counted at the indicated times using a Coulter Z1 cell counter. Each experiment was done in triplicate, and results are expressed as means±S.E. for each determination

[1] = tested on: Sp1, Sp3 and Sp4 protein expression in Panc28 cells; test: Sp protein expression (gels) in Panc28 cells; type: cell-based
PPARγ = test: PPARγ-GAL4/GAL4-Luc or PPRE3-Luc transactivation in LNCaP cells; type: cell-based
Excerpt: Transfections: The Gal4 reporter construct containing 5× Gal4 response elements (pGal4) was kindly provided by Dr. Marty Mayo (University of North Carolina, Chapel Hill, N.C.). The Gal4 DBD-PPARγ construct was a gift of Dr. Jennifer L. Oberfield (Glaxo Wellcome Research and Development, Research Triangle Park, N.C.). The PPRE-luc construct contains three tandem PPREs with a minimal TATA sequence linked to the luciferase gene in pGL2. The AR-luc construct containing the −5400 to +580 region of the androgen receptor promoter was provided by Dr. Donald J. Tindall (Mayo Clinic, Rochester, Minn.), and the PSA-luc construct containing the 5.8-kilobase region of the PSA promoter was provided by Dr. Hong-Wu Cheng (University of California, Davis, Calif.). LNCaP cells (1×10^5) were seeded in 12-well plates in DMEM/Ham's F-12 media supplemented with 2.5% charcoal-stripped FBS and grown overnight. Transient transfections were performed using Lipofectamine reagent (Invitrogen) according to the protocol provided by the manufacturer. Transfection studies were performed using 0.4 μg of Gal4Luc, 0.04 μg of β-galactosidase, 0.04 μg of Gal4 DBD-PPARγ, 0.4 μg of AR-luc, and 0.3 μg of PSA-luc. Six hr after transfection, the transfection mix was replaced with complete media containing either vehicle (DMSO) or the indicated ligand for 20 to 22 hr. Cells were then lysed with 100 μl of 1× reporter lysis buffer, and 30 μl of cell extract was used for luciferase and β-galactosidase assays. A Lumicount luminometer (PerkinElmer Life and Analytical Sciences) was used to quantify luciferase and β-galactosidase activities, and the luciferase activities were normalized to β-galactosidase activity.

LNCaP cells = test: Western blot analysis and DNA fragmentation assay in LNCaP cells; type: cell-based, human
Method: Cell Proliferation and DNA Fragmentation Assays: LNCaP prostate cancer cells (2×10^4 per well) were added to 12-well plates and allowed to attach for 24 hr. The medium was then changed to DMEM/Ham's F-12 media containing 2.5% charcoal-stripped FBS, and either vehicle (DMSO) or the indicated C-DIMs were added. Fresh medium and indicated compounds were added every 48 hr, and cells were then trypsinized and counted after 2, 4, and 6 days using a Coulter Z1 cell counter (Beckman Coulter, Fullerton, Calif.). Each experiment was done in triplicate, and results are expressed as means±S.E. for each set of three experiments. The DNA fragmentation assay was performed using a BioVision Apoptotic DNA ladder extraction kit (BioVision, Mountain View, Calif.) according to the manufacturer's protocol.
Western Blot Analysis: Cells were seeded in DMEM:Ham's F-12 media containing 2.5% charcoal-stripped FBS for 24 hr and then treated with either the vehicle (DMSO) or the indicated compounds. Cells were collected by scraping in 150 μl high salt lysis buffer (50 mM HEPES, 0.5 M NaCl, 1.5 mM MgCl2, 1 mM EGTA, 10% (v/v) glycerol, 1% (v/v) Triton-X-100 and 5 μL/ml of Protease Inhibitor Cocktail (Sigma). The lysates were incubated on ice for 1 hr with intermittent vortexing followed by centrifugation at 20,000 g for 10 min at 4° C. Before electrophoresis, samples were boiled for 3 min at 100° C.; the amount of protein was determined and 60 μg protein applied per lane. Samples were subjected to SDS-PAGE on 10% gel at 120 V for 3 to 4 hr. Proteins were transferred on to polyvinylidene difluoride membrane (PVDF; Bio-Rad, Hercules, Calif.) at 0.9 amp for 90 min at 4° C. in 1× transfer buffer (48 mM Tris-HCl, 39 mM glycine, and 0.025% SDS). The membranes were blocked for 30 min with 5% TBST-Blotto (10 mM Tris-HCl, 150 mM NaCl (pH 8.0), 0.05% Triton X-100 and 5% non-fat dry milk) and incubated in fresh 5% TBST-Blotto with primary antibody overnight with gentle shaking at 4° C. After washing with TBST for 10 min, the PVDF membrane was incubated with secondary antibody (1:5000) in 5% TBST-Blotto for 2-3 hr. The membrane was washed with TBST for 10 min and incubated with 10 ml of chemiluminescence substrate (PerkinElmer Life Sciences) for 1.0 min and exposed to ImageTeK-H medical imaging film (Eastman American X-ray Supply, Inc.).

p21 promoter = p21 promoter construct luciferase assay in LNCaP cells; type: cell-based; details: 1-5 μM

**Q.** Which IC50 (HT-29 colon cancer cells) does the source give for `COC(=O)[C@@]1(C)CC[C@]2(C)CC[C@]3(C)C(=CC(=O)[C@@H]4[C@@]5(C)C=C(C#N)C(=O)C(C)(C)[C@@H]5CC[C@]43C)[C@@H]2C1` [β-CDODA-Me, Methyl 2-cyano-3,11-dioxo-18β-oleana-1,12-dien-30-oate] here?
**A.** 200 to 500 nM

**Q.** And the “Sp1, Sp3 and Sp4 protein expression” value [1]?
**A.** concentration-dependent decrease; also recorded: induces Sp protein degradation

**Q.** What about the VEGF expression [1] of the same compound?
**A.** parallel decrease

**Q.** What about the “caspase-dependent apoptosis (PARP cleavage)” value [1] of the same compound?
**A.** induction of caspase-dependent apoptosis

**Q.** And the “effects on Sp protein expression with PPARγ antagonist (T007)” value [1]?
**A.** not blocked; also recorded: not reversed

**Q.** What about the “effects on Sp protein expression with proteasome inhibitor lactacystin” value [1] of the same compound?
**A.** not blocked; also recorded: only a minimal amount of reversal

**Q.** What about the “induced transactivation after cotreatment with 10 μM T007” value (PPARγ) of the same compound?
**A.** significant inhibition of induced transactivation

**Q.** What about the “PPARγ-dependent transactivation (luciferase activity)” value (PPARγ; 1-5 μM) of the same compound?
**A.** significantly induced luciferase activity

**Q.** And the “concentrations that decrease AR and PSA expression” value (LNCaP cells)?
**A.** 1 to 2.5 µM

**Q.** What about the “degradation of cyclin D1 after cotreatment with MG132” value (LNCaP cells) of the same compound?
**A.** inhibited

**Q.** What about the “downregulation of AR, PSA and FKBP51 proteins after cotreatment with T007 or MG132” value (LNCaP cells) of the same compound?
**A.** not affected

**Q.** And the “induced proapoptotic responses after cotreatment with T007” value (LNCaP cells)?
**A.** not inhibited

**Q.** And the “JNK (p-JNK), PI3K (p-Akt) and MAPK (p-Erk) pathways” value (LNCaP cells; 2.5 μM)?
**A.** induces activation

**Q.** And the “decreased expression of AR, PSA and FKBP51 with kinase inhibitors” value (LNCaP cells; 2.5 μM)?
**A.** unaffected

**Q.** What about the “induction of EGR-1, ATF-3 and NAG-1” value (LNCaP cells; 2.5 μM) of the same compound?
**A.** time-dependent induction

**Q.** What about the p-Erk activation (LNCaP cells; 2.5 μM) of the same compound?
**A.** remained elevated for 24 hr

**Q.** And the “time of maximal activation of JNK” value (LNCaP cells; 2.5 μM)?
**A.** 8 h

**Q.** What about the “time of maximal activation of PI3K” value (LNCaP cells; 2.5 μM) of the same compound?
**A.** 8 to 12 h

**Q.** And the “AR, PSA and FKBP51 expression” value (LNCaP cells; 1-5 μM, presence or absence of 10 nM DHT)?
**A.** concentration-dependent decrease

**Q.** What about the “NAG-1 and ATF-3 proapoptotic proteins” value (LNCaP cells; 24 hr, 1-5 μM) of the same compound?
**A.** induced

**Q.** And the “cyclin D1 proteins and Rb phosphorylation” value (LNCaP cells; 24 hr, 1-5 μM)?
**A.** decrease

**Q.** What about the “p27 and p21 proteins” value (LNCaP cells; 24 hr, 1-5 μM) of the same compound?
**A.** concentration-dependent induction

**Q.** What about the “proapoptotic responses accompanying NAG-1/ATF-3 induction” value (LNCaP cells; 24 hr, 1-5 μM) of the same compound?
**A.** caspase-dependent PARP cleavage, DNA fragmentation, and decreased bcl2 expression

**Q.** And the “time course of PARP cleavage, AR and Sp1” value (LNCaP cells; up to 24 hr)?
**A.** time-dependent induction of PARP cleavage and a decrease of both AR and Sp1

**Q.** What about the “luciferase activity of p21 promoter constructs” value (p21 promoter) of the same compound?
**A.** induces luciferase activity
